Measured values taken from patent US5532218A, “3'-aziridino-anthracycline derivatives” (Farmitalia Carlo Erba S.R.L., priority 1993, dated 1996).
≈ marks a conversion by molar mass, not a printed value.

Key:
[1] = tested on: LoVo (colon adenocarcinoma); assay: cells; conditions: for IC50 (concentration inhibiting 50% colony formation), LoVo: colony assay, 4 h treatment; for cytotoxic activity against LoVo, in words: both cell lines
From the text: (§1) The citotoxic activity is reported as IC50, the concentration inhibiting 50% of colony formation, calculated on concentration response curves. Resistance index R.I. is the ratio between the IC50 on resistant cells and the IC50 on sensitive cells.

[2] = tested on: LoVo/DX (colon adenocarcinoma resistant to doxorubicin); assay: cells; conditions: for resistance index, in words: LoVo/DX vs LoVo; for IC50 (concentration inhibiting 50% colony formation), LoVo/DX / R.I. = Resistance Index = (IC50 LoVo/DX)/(IC50 LoVo): colony assay, 4 h treatment; for cytotoxic activity against LoVo/DX, in words: both cell lines; for R.I. = Resistance Index = (IC50 LoVo/DX)/(IC50 LoVo): ratio LoVo/DX to LoVo
From the text: as §1

[3] = tested on: P388 murine leukaemia resistant to doxorubicin (P388/DX); assay: antitumor activity on P388/DX leukaemia in vivo; design: species or system murine (BD2F1 mice); conditions: for T/C (median survival time of treated mice/median survival time of controls × 100): P388/DX 10^5 cell/mouse i.v. in BD2F1 mice, compound i.v. one day after tumor transplantation, at optimal dose; for T/C (median survival time of treated mice/median survival time of controls × 100) / O.D. (Optimal Dose): in Tween 80 (10%); for O.D. (Optimal Dose): P388/DX in BD2F1 mice, i.v. one day after tumor transplantation; for in vivo activity compared with doxorubicin, in words: P388 murine leukaemia resistant to doxorubicin, BD2F1 mice
From the text: The compounds were suspended in Tween 80 (10%) and injected i.v. one day
after tumor transplantation.
^(2) Median survival time of treated mice/Median survival time of

| Compound | IC50 (concentration inhibiting 50% colony formation), LoVo ([1]; LoVo) | cytotoxic activity against LoVo, in words [1] | resistance index, in words [2] | IC50 (concentration inhibiting 50% colony formation), LoVo/DX ([2]; LoVo/DX) | cytotoxic activity against LoVo/DX, in words [2] | R.I. = Resistance Index = (IC50 LoVo/DX)/(IC50 LoVo) [2] | T/C (median survival time of treated mice/median survival time of controls × 100) [3] | O.D. (Optimal Dose) [3] | in vivo activity compared with doxorubicin, in words [3] | IC50 ([1]; Homo sapiens, LoVo, 4 h, read-out: IC50 (concentration inhibiting 50% colony formation), LoVo) | IC50 ([2]; Homo sapiens, LoVo/DX, 4 h, read-out: IC50 (concentration inhibiting 50% colony formation), LoVo/DX) |
| --- | --- | --- | --- | --- | --- | --- | --- | --- | --- | --- | --- |
| 3'-deamino-3'-[1-aziridinyl]-4'-O-methansulfonyl daunorubicin [Compound 1a] | 13 ng/mL | high activity | low resistance index | 22 ng/mL | high activity | 1.7 | 190% | 2.2 mg/kg | strikingly higher activity than doxorubicin |  |  |
| 3'-deamino-3'-[1-aziridinyl]-4'-O-methansulfonyl doxorubicin [Compound 2c] | 2.7 ng/mL | high activity | low resistance index | 24 ng/mL | high activity | 9.2 | 195% | 1.8 mg/kg | strikingly higher activity than doxorubicin |  |  |
| 3'-deamino-3'-[1-aziridinyl]-4'-O-methansulfonyl-14-nicotinate-doxorubicin [Compound 2a] | 14 ng/mL |  | low resistance index | 40 ng/mL |  | 2.9 | 200% | 2.5 mg/kg | strikingly higher activity than doxorubicin |  |  |
| CC(=O)[C@]1(O)Cc2c(O)c3c(c(O)c2[C@@H](O[C@H]2C[C@H](N4CC4)[C@H](OS(C)(=O)=O)[C@H](C)O2)C1)C(=O)c1ccccc1C3=O [Compound 1b, 4-demethoxy-3'-deamino-3'-[1-aziridinyl]-4'-O-methansulfonyl daunorubicin] |  | high activity | low resistance index |  | high activity | 0.9 | 240% | 3.8 mg/kg | strikingly higher activity than doxorubicin | 0.027 µg/mL (≈ 0.0449 µM) | 0.026 µg/mL (≈ 0.0432 µM) |
| COc1cccc2c1C(=O)c1c(O)c3c(c(O)c1C2=O)C[C@@](O)(C(=O)CO)C[C@@H]3O[C@H]1C[C@H](N)[C@H](O)[C@H](C)O1 [doxorubicin, reference compound] |  |  |  |  |  |  |  | 16.9 mg/kg |  |  |  |
